Results from publication PMC10247784, “Physiological activation of human and mouse bitter taste receptors by bile acids” (Communications Biology, 2023).
Where “and” joins values, the source holds several entries; their conditions need not be identical. Equal values may be shown once.

Target: T1, human TAS2R4 (Homo sapiens, UniProt Q9NYW5)
T1 construct: expressed in transfected cells; host or cells: HEK293T-Gα16gust44
T1 sequence (Q9NYW5 1-299): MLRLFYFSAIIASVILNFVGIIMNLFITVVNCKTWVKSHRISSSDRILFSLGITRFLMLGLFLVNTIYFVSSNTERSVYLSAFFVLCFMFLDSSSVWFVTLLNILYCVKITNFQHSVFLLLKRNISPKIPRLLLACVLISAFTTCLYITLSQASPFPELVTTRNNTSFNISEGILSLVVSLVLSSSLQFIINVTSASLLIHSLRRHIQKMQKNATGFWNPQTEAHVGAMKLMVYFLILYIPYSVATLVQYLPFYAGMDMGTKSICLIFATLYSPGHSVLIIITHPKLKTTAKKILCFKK
Experiment: Calcium imaging assay (FLIPR), HEK293T-Gα16gust44 cells transfected with human TAS2R4
Format: cell-based
Procedure, shortened: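 Read-out is Fluo-4 fluorescence change (ΔF/F) after automated application of bile acids (DMSO stocks) to transiently transfected cells. Values are corrected for empty-vector cells and normalized to buffer. Dose-response from three independent experiments in duplicate; threshold concentration set at p < 0.01 versus mock.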

With `C[C@H](CCC(=O)NCCS(=O)(=O)O)[C@H]1CC[C@H]2[C@@H]3[C@H](O)C[C@@H]4C[C@H](O)CC[C@]4(C)[C@H]3C[C@H](O)[C@]12C` [Taurocholic Acid, taurocholic acid] the “Efficacy = maximal amplitude (ΔF/F)” value (TAS2R4, bile acids, mean) was 0.1496, the “Efficacy (maximal amplitude ΔF/F), individual data points” value (TAS2R4, bile acids, single replicates, listed as TCA) was 0.127 and 0.1657 and 0.1561 and the “Δ F/F” value (TAS2R4, conc. 0,01 mM) was 0.0134. The “Δ F/F” value (TAS2R4, conc. 0,1 mM) was 0.09538, the “Δ F/F” value (TAS2R4, conc. 0,03 mM) was 0.04001 and the “Δ F/F” value (TAS2R4, conc. 0,3 mM) was 0.1496. The “Δ F/F” value (TAS2R4, conc. 0,001 mM) was 0.005857, the “Δ F/F” value (TAS2R4, conc. 0,003 mM) was 0.007034 and the “RLU, fluorescence trace” value (Time (s) 0) was 0 RLU. The “RLU, fluorescence trace” value (Time (s) 2) was -24.6054 RLU, the “RLU, fluorescence trace” value (Time (s) 4) was 12.8274 RLU and the “RLU, fluorescence trace” value (Time (s) 6) was 3.789 RLU. The “RLU, fluorescence trace” value (Time (s) 8) was -20.122 RLU, the “RLU, fluorescence trace” value (Time (s) 12) was 7.77 RLU and the “RLU, fluorescence trace” value (Time (s) 14) was -34.8945 RLU. For the same compound, the “RLU, fluorescence trace” value (Time (s) 16) was -37.677 RLU, the “RLU, fluorescence trace” value (Time (s) 18) was -48.5281 RLU and the “RLU, fluorescence trace” value (Time (s) 18.766 (TCA, TLCA: 18.782)) was 30.085 RLU. The “RLU, fluorescence trace” value (Time (s) 20.781 (TCA, TLCA: 20.782)) was 9.231 RLU, the “RLU, fluorescence trace” value (Time (s) 22.781 (TCA, TLCA: 22.782)) was 3.151 RLU and the “RLU, fluorescence trace” value (Time (s) 24.781 (TCA, TLCA: 24.782)) was 34.1327 RLU. The “RLU, fluorescence trace” value (Time (s) 26.781 (TCA, TLCA: 26.782)) was 57.6073 RLU, the “RLU, fluorescence trace” value (Time (s) 28.781 (TCA, TLCA: 28.782)) was 122.11 RLU and the “RLU, fluorescence trace” value (Time (s) 30.781 (TCA, TLCA: 30.782)) was 164.035 RLU. For the same compound, the “RLU, fluorescence trace” value (Time (s) 32.781 (TCA, TLCA: 32.782)) was 242.016 RLU, the “RLU, fluorescence trace” value (Time (s) 34.781 (TCA, TLCA: 34.782)) was 272.716 RLU and the “RLU, fluorescence trace” value (Time (s) 36.781 (TCA, TLCA: 36.782)) was 320.809 RLU. For the same compound, the “RLU, fluorescence trace” value (Time (s) 38.781 (TCA, TLCA: 38.782)) was 384.052 RLU, the “RLU, fluorescence trace” value (Time (s) 40.781 (TCA, TLCA: 40.782)) was 404.135 RLU and the “RLU, fluorescence trace” value (Time (s) 42.781 (TCA, TLCA: 42.782)) was 433.94 RLU. For the same compound, the “RLU, fluorescence trace” value (Time (s) 44.781 (TCA, TLCA: 44.782)) was 475.477 RLU, the “RLU, fluorescence trace” value (Time (s) 46.781 (TCA, TLCA: 46.782)) was 493.347 RLU and the “RLU, fluorescence trace” value (Time (s) 48.781 (TCA, TLCA: 48.782)) was 501.503 RLU. The “RLU, fluorescence trace” value (Time (s) 50.781 (TCA, TLCA: 50.782)) was 547.521 RLU, the “RLU, fluorescence trace” value (Time (s) 52.781 (TCA, TLCA: 52.782)) was 553.791 RLU and the “RLU, fluorescence trace” value (Time (s) 54.781 (TCA, TLCA: 54.782)) was 588.235 RLU. The “RLU, fluorescence trace” value (Time (s) 56.781 (TCA, TLCA: 56.782)) was 548.835 RLU, the “RLU, fluorescence trace” value (Time (s) 58.781 (TCA, TLCA: 58.782)) was 588.475 RLU and the “RLU, fluorescence trace” value (Time (s) 60.781 (TCA, TLCA: 60.782)) was 601.608 RLU. For the same compound, the “RLU, fluorescence trace” value (Time (s) 62.781 (TCA, TLCA: 62.782)) was 626.215 RLU, the “RLU, fluorescence trace” value (Time (s) 64.781 (TCA, TLCA: 64.782)) was 626.188 RLU and the “RLU, fluorescence trace” value (Time (s) 66.781 (TCA, TLCA: 66.782)) was 619.641 RLU. The “RLU, fluorescence trace” value (Time (s) 68.781 (TCA, TLCA: 68.782)) was 624.108 RLU, the “RLU, fluorescence trace” value (Time (s) 70.781 (TCA, TLCA: 70.782)) was 638.032 RLU and the “RLU, fluorescence trace” value (Time (s) 72.781 (TCA, TLCA: 72.782)) was 646.123 RLU. For the same compound, the “RLU, fluorescence trace” value (Time (s) 74.781 (TCA, TLCA: 74.782)) was 657.793 RLU, the “RLU, fluorescence trace” value (Time (s) 76.781 (TCA, TLCA: 76.782)) was 666.37 RLU and the “RLU, fluorescence trace” value (Time (s) 78.781 (TCA, TLCA: 78.782)) was 678.287 RLU. The “RLU, fluorescence trace” value (Time (s) 80.781 (TCA, TLCA: 80.782)) was 665.284 RLU, the “RLU, fluorescence trace” value (Time (s) 82.781 (TCA, TLCA: 82.782)) was 655.873 RLU and the “RLU, fluorescence trace” value (Time (s) 84.781 (TCA, TLCA: 84.782)) was 679.941 RLU. For the same compound, the “RLU, fluorescence trace” value (Time (s) 86.781 (TCA, TLCA: 86.782)) was 648.406 RLU, the “RLU, fluorescence trace” value (Time (s) 88.781 (TCA, TLCA: 88.782)) was 644.228 RLU and the “RLU, fluorescence trace” value (Time (s) 90.781 (TCA, TLCA: 90.782)) was 650.88 RLU. The “RLU, fluorescence trace” value (Time (s) 92.781 (TCA, TLCA: 92.782)) was 631.638 RLU, the “RLU, fluorescence trace” value (Time (s) 94.781 (TCA, TLCA: 94.782)) was 665.026 RLU and the “RLU, fluorescence trace” value (Time (s) 96.781 (TCA, TLCA: 96.782)) was 673.234 RLU. The “RLU, fluorescence trace” value (Time (s) 98.781 (TCA, TLCA: 98.782)) was 653.956 RLU, the “RLU, fluorescence trace” value (Time (s) 100.781 (TCA, TLCA: 100.782)) was 661.771 RLU and the “RLU, fluorescence trace” value (Time (s) 102.781 (TCA, TLCA: 102.782)) was 636.296 RLU. The “RLU, fluorescence trace” value (Time (s) 104.781 (TCA, TLCA: 104.782)) was 641.127 RLU, the “RLU, fluorescence trace” value (Time (s) 106.781 (TCA, TLCA: 106.782)) was 615.791 RLU and the “RLU, fluorescence trace” value (Time (s) 108.781 (TCA, TLCA: 108.782)) was 618.091 RLU. For the same compound, the “RLU, fluorescence trace” value (Time (s) 110.781 (TCA, TLCA: 110.782)) was 644.691 RLU, the “RLU, fluorescence trace” value (Time (s) 112.781 (TCA, TLCA: 112.782)) was 640.87 RLU and the “RLU, fluorescence trace” value (Time (s) 114.781 (TCA, TLCA: 114.782)) was 609.041 RLU. For the same compound, the “RLU, fluorescence trace” value (Time (s) 116.781 (TCA, TLCA: 116.782)) was 616.307 RLU, the “RLU, fluorescence trace” value (Time (s) 118.781 (TCA, TLCA: 118.782)) was 584.502 RLU and the “RLU, fluorescence trace” value (Time (s) 120.781 (TCA, TLCA: 120.782)) was 602.866 RLU. The “RLU, fluorescence trace” value (Time (s) 122.781 (TCA, TLCA: 122.782)) was 581.164 RLU, the “RLU, fluorescence trace” value (Time (s) 124.781 (TCA, TLCA: 124.782)) was 578.218 RLU and the “RLU, fluorescence trace” value (Time (s) 126.781 (TCA, TLCA: 126.782)) was 564.916 RLU. For the same compound, the “RLU, fluorescence trace” value (Time (s) 128.781 (TCA, TLCA: 128.782)) was 590.827 RLU, the “RLU, fluorescence trace” value (Time (s) 130.781 (TCA, TLCA: 130.782)) was 571.073 RLU and the “RLU, fluorescence trace” value (Time (s) 132.781 (TCA, TLCA: 132.782)) was 555.387 RLU. The “RLU, fluorescence trace” value (Time (s) 134.781 (TCA, TLCA: 134.782)) was 548.858 RLU, the “RLU, fluorescence trace” value (Time (s) 136.781 (TCA, TLCA: 136.782)) was 535.742 RLU and the “RLU, fluorescence trace” value (Time (s) 137.547) was 524.559 RLU. The “RLU, fluorescence trace” value (Time (s) 143.547) was 525.352 RLU, the “RLU, fluorescence trace” value (Time (s) 149.547) was 486.955 RLU and the “RLU, fluorescence trace” value (Time (s) 155.547) was 493.52 RLU. The “RLU, fluorescence trace” value (Time (s) 161.547) was 446.448 RLU, the “RLU, fluorescence trace” value (Time (s) 167.547) was 435.019 RLU and the “RLU, fluorescence trace” value (Time (s) 173.547) was 386.716 RLU. For the same compound, the “RLU, fluorescence trace” value (Time (s) 179.547) was 393.434 RLU, the “RLU, fluorescence trace” value (Time (s) 185.547) was 372.463 RLU and the “RLU, fluorescence trace” value (Time (s) 191.547) was 357.243 RLU. For the same compound, the “RLU, fluorescence trace” value (Time (s) 197.547) was 314.74 RLU, the “RLU, fluorescence trace” value (Time (s) 203.547) was 318.63 RLU and the “RLU, fluorescence trace” value (Time (s) 209.547) was 306.856 RLU. The “RLU, fluorescence trace” value (Time (s) 215.547) was 260.931 RLU, the “RLU, fluorescence trace” value (Time (s) 221.547) was 241.962 RLU and the “RLU, fluorescence trace” value (Time (s) 227.547) was 290.972 RLU. For the same compound, the “RLU, fluorescence trace” value (Time (s) 233.547) was 269.304 RLU, the “RLU, fluorescence trace” value (Time (s) 239.547) was 267.596 RLU and the “RLU, fluorescence trace” value (Time (s) 245.547) was 219.689 RLU. For the same compound, the “RLU, fluorescence trace” value (Time (s) 293.547) was 189.99 RLU, the “RLU, fluorescence trace” value (Time (s) 299.547) was 175.107 RLU and the “RLU, fluorescence trace” value (Time (s) 305.547) was 192.603 RLU. For the same compound, the “RLU, fluorescence trace” value (Time (s) 311.547) was 188.074 RLU, the “RLU, fluorescence trace” value (Time (s) 317.547) was 199.388 RLU and the “RLU, fluorescence trace” value (Time (s) 323.547) was 170.101 RLU. For the same compound, the “RLU, fluorescence trace” value (Time (s) 329.547) was 196.926 RLU, the “RLU, fluorescence trace” value (Time (s) 335.547) was 162.738 RLU and the “RLU, fluorescence trace” value (Time (s) 341.547) was 164.861 RLU. The “RLU, fluorescence trace” value (Time (s) 347.547) was 156.987 RLU, the “RLU, fluorescence trace” value (Time (s) 353.547) was 175.115 RLU and the “RLU, fluorescence trace” value (Time (s) 359.547) was 151.684 RLU. For the same compound, the “Activation threshold concentration TAS2R4” value (lowest concentration with significantly increased fluorescence vs empty vector (p < 0.01)) was 100 µM.
